Earlier results as cited in patent US20120189694A1, “CO-PRECIPITATE COMPRISING A PHOSPHODIESTERASE-5 INHIBITOR (PDE-5-INHIBITOR) AND A […] COMPATIBLE CARRIER, PRODUCTION AND USE THEREOF” (ratiopharm GmbH, priority 2009, published 2012).

Key:
[1] = in vivo
[2] = according to WO 01/08687

- solubility in water [2]: about 2 μg/ml
SMILES: CN1CC(=O)N2[C@H](c3ccc4c(c3)OCO4)c3[nH]c4ccccc4c3C[C@@H]2C1=O [tadalafil, (6R,12aR)-6-(1,3-benzodioxol-5-yl)-2-methyl-1,2,3,4,6,7,12,12a-octahydropyrazino[2′,1′:6,1]pyrido[3,4-b]indole-1,4-dione]
- time the action lasts [1]: up to 36 hours
